{
  "source": "patent US20260285992A1",
  "about": "“GIP ACTIVITY MODULATORS AND ORTHOSTATIC INTOLERANCE” (Antag Therapeutics ApS, priority 2023, published 2026)",
  "key": {"[1]": {"assay": "Orthostatic challenges before and after subcutaneous GIP (1-42) or placebo in fasted healthy subjects: heart rate, blood pressure and clinical signs", "format": "in vivo, human", "method": "Synthetic human GIP (1-42) (GIP) (PolyPeptide Group, Strasbourg, France) was dissolved in a sodium hydrogen carbonate buffer with 0.5% human serum albumin in NaCl 9 mg/ml to a final concentration of 4 mg/ml. The solution was sterile filtered and dispensed into glass ampoules. On the appropriate study days, the GIP solutions were further diluted in saline (NaCl 9 mg/ml) to 125 μg/ml. Saline (NaCl 9 mg/mL) was used as placebo.\nAt the beginning of each study day, participants were weighed and received either a placebo injection or a weight-dependent GIP (1-42) dose of 2.7 μg/kg at time 0.\nFour healthy, non-medicated participants between 33-40 years old (one male and three females) were included in the study. On each of the two study days, participants arrived after an overnight fast (at least 10 h fasting). To enable continuous heart rate monitoring, three electrodes compatible with the Holter Spiderview recorder were placed over the rib at V5, on the xiphoid muscle at the bottom of the sternum, and at the sternum over the manubrium after the skin was disinfected or shaved and disinfected for the male. Baseline characterization was initiated at timepoint-60 min and lasted for one hour. For baseline characterization, the participants alternated between the supine position and 10 min orthostatic challenges initiated at timepoints −45 min and −20 min. Orthostatic challenges were elicited by actively standing up from the hospital bed. At timepoint 0 min, the participants received a subcutaneous injection of either 2.7 μg/kg GIP or saline in a single-blinded manner. Following the injection, the participants rested in the supine position for one hour when not doing 10 min orthostatic challenges initiated at 15 min and 40 min post-injection. At time points −50 min, −40 min, −30 min, 10 min, 20 min, 45 min, and 55 min systolic- and diastolic blood pressure as well as heart rate were measured using the Omron M2 blood pressure monitor. The two study days were identical except for the injection of either GIP or saline. Fasting prior to administration of GIP mimics the body's natural response to eating, as eating induces GIP secretion. The method employed thus mimics fasting or postprandial conditions with the emphasis on GIP's physiological effects."}, "[2]": {"settings": "in vivo; cited from earlier work"}},
  "data": [
    {"sequence": "YAEGTFISDYSIAMDKIHQQDFVNWLLAQKGKKNDWKHNITQ [GIP]", "values": [
      {"measurement": "effect on orthostatic tolerance (conclusion)", "setting": "[1]; by decreasing SBP and DBP and increasing heart rate, in men and women", "result": "significantly worsens orthostatic tolerance"},
      {"measurement": "subjects who experienced presyncope and had to lay down", "setting": "[1]; first orthostatic challenge following GIP administration, four subjects, 2.7 μg/kg s.c.", "result": "one of the subjects"},
      {"measurement": "increase in heart rate over baseline supine levels, during the orthostatic challenge", "setting": "[1]; four healthy fasted subjects, 2.7 μg/kg GIP (1-42) s.c., orthostatic challenge, Omron M2 monitor, FIG. 1", "result": 36, "unit": "bpm"},
      {"measurement": "increase in heart rate over baseline supine levels, supine position", "setting": "[1]; four healthy fasted subjects, 2.7 μg/kg GIP (1-42) s.c., supine, Omron M2 monitor, FIG. 1", "result": 17, "unit": "bpm"},
      {"measurement": "change in DBP during the orthostatic challenge compared to placebo levels", "setting": "[1]; four healthy fasted subjects, 2.7 μg/kg s.c., orthostatic challenge, FIG. 5", "result": "−13", "unit": "mmHg"},
      {"measurement": "decrease in SBP during the orthostatic challenges compared to placebo levels", "setting": "[1]; four healthy fasted subjects, 2.7 μg/kg s.c., orthostatic challenges, FIG. 4", "result": 12, "unit": "mmHg"},
      {"measurement": "decrease in SBP in the supine position compared to placebo levels", "setting": "[1]; four healthy fasted subjects, 2.7 μg/kg s.c., supine, FIG. 4", "result": "4-5 mmHg"},
      {"measurement": "change in DBP in the supine position compared to placebo levels", "setting": "[1]; four healthy fasted subjects, 2.7 μg/kg s.c., supine, FIG. 5", "result": "−10", "unit": "mmHg"},
      {"measurement": "subjects who reported significant dizziness and lightheadedness", "setting": "[1]; orthostatic challenges post GIP-injection, 2.7 μg/kg s.c.", "result": "Three out of four subjects"},
      {"measurement": "increase in heart rate compared to baseline supine heart rate during the first orthostatic challenge post injection (Holter monitor)", "setting": "[1]; two subjects, 2.7 μg/kg s.c., first orthostatic challenge post injection, FIGS. 2 and 3", "result": "49-50 bpm"},
      {"measurement": "gradual increase in supine heart rate compared to baseline supine heart rate (Holter monitor)", "setting": "[1]; two subjects, 2.7 μg/kg s.c., within 15 min, range depends on the subject, FIGS. 2 and 3", "result": "19-28 bpm"},
      {"measurement": "half-life", "setting": "[2]", "result": "~ 4 min"}
    ]}
  ]
}
